Here are results for 21 molecules from article PMC7465886, “4-(N-Alkyl- and -Acyl-amino)-1,2,4-triazole-3-thione Analogs as Metallo-β-Lactamase Inhibitors: Impact of 4-Linker on Potency and Spectrum of Inhibition” (Biomolecules, 2020).

SMILES strings stand for the structures. Read-outs that look alike come from different tables or passages of the source. Where only a bound is given, the exact number is not on record here.

The target of assay [1] is T1, NDM-1 (Klebsiella pneumoniae, UniProt C7C422). On the set-up: method as in PMID 32937203. The conditions noted are these: cited from earlier work; for Inhibition of NDM-1 (dash in Ki column), corresponding hydrazone-like compound: in parentheses, 100 μM inhibitor; for Ki: Schiff base analogs, read-out: Ki Value NDM-1, hydrazone-like compound (converted).
T1 sequence (C7C422 37-270 limits assumed): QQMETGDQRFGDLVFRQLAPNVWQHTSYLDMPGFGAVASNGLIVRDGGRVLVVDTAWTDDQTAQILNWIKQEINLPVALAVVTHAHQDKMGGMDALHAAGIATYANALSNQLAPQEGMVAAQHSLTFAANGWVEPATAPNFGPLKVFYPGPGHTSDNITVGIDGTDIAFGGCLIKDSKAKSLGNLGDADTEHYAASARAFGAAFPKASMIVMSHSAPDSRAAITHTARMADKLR
Assay [2] concerns the target T2, VIM-2 (Escherichia coli, UniProt Q5U7L7).
T2 construct: made in house; host or cells: E. coli BL21(DE3) derivative, pET-9a
The following applies: cited from earlier work; for Inhibition of VIM-2 (dash in Ki column), corresponding hydrazone-like compound: in parentheses, 100 μM inhibitor; for Ki: Schiff base analogs, read-out: Ki Value VIM-2, hydrazone-like compound (converted).

The target of assay [3] is T3, IMP-1 (Serratia marcescens, UniProt P52699).
T3 construct: made in house; host or cells: E. coli BL21(DE3) derivative, pET-9a
T3 sequence (P52699 19-246 limits assumed): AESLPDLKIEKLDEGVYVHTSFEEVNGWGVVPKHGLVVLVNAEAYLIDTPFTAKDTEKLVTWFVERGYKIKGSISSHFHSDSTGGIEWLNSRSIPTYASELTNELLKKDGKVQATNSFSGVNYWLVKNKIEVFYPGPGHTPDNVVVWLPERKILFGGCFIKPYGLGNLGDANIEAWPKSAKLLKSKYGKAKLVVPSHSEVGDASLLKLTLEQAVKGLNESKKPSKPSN
On the set-up: method as in PMID 32937203. The following applies: cited from earlier work; for Inhibition of IMP-1 (dash in Ki column), corresponding hydrazone-like compound: in parentheses, 100 μM inhibitor; for Ki: value in parentheses, read-out: Ki Value IMP-1, corresponding hydrazone-like compound (converted).

The target of assay [4] is T2, VIM-2. Description: MBL inhibition, reporter substrate method, VIM-2. In kind it is biochemical. The procedure: (§1) Compounds were prepared in DMSO at a final concentration of 50 mM prior to dilution in the assay buffer. The reaction rate was measured as the variation of absorbance observed upon substrate hydrolysis in a UV-Vis spectrophotometer or microplate reader at a wavelength of 300 nm (imipenem, meropenem), 260 nm (cefotaxime), or 482 nm (nitrocefin) and in the presence of a purified MBL enzyme (such as VIM-1, VIM-2, VIM-4, NDM-1, and IMP-1, at a final concentration ranging from 1 to 70 nM).
(§2) These enzymes were overproduced in derivatives of E. coli BL21(DE3) carrying a pET-9 a (IMP-1, VIM-1, VIM-2, and VIM-4) or pET-15 b (NDM-1) vector into which the metallo-β-lactamase-encoding open reading frame was cloned. Bacterial strains were grown in the auto-inducing medium, ZYP-5052, supplemented with 50 μg/mL kanamycin for 24 h at 37 °C [38]. IMP-1, VIM-1, VIM-2, and VIM-4 were purified by ion-exchange and gel filtration chromatography using an AKTA Purifier platform (GE Healthcare, Uppsala, Sweden) as previously described. NDM-1 (residues 37-270) was produced as an amino-terminal 6 xHis-tag fusion protein and was purified using affinity chromatography. After growth for 26 h at 25 °C, bacterial cells were harvested by centrifugation (10,000× g, 30 min, 4 °C), resuspended in 10 mM HEPES buffer (pH 7.5) containing 0.15 M NaCl (buffer A) in one-fifth of the original culture volume, and lysed by sonication. Cellular debris was removed by centrifugation (12,000× g, 40 min, 4 °C). The clarified sample was loaded on a HisTrap HP column (bed volume, 5 mL; GE Healthcare), followed by a wash step (25 mL) with buffer A containing 20 mM imidazole. Proteins were eluted using buffer A containing 350 mM imidazole. The resulting protein sample was desalted (HiPrep 26/10 Desalting column, GE Healthcare) using 20 mM triethanolamine (pH 7.2) supplemented with 50 μM ZnSO4 and concentrated using an Amicon Ultra-15 (MW cut-off, 10 kDa; Millipore, Burlington, MA, USA). The concentrated sample was loaded on a Superdex 75 prep grade column (XK16/100 column; bed volume, 140 mL; GE Healthcare) and the proteins eluted with buffer A containing 50 μM ZnSO4. The active fractions were pooled and stored at −20 °C. The purity of the protein preparations was estimated >95% by SDS-PAGE analysis. The authenticity of the enzyme preparations was confirmed by electron spray ionization mass spectrometry, as previously described.
(§3) The inhibition constants (Ki) were determined on the basis of a model of competitive inhibition by analyzing the dependence of the ratio v0/vi (v0, hydrolysis velocity in the absence of inhibitor; vi, hydrolysis velocity in the presence of inhibitor) as a function of [I] as already described. The slope of the plot of v0/vi vs. [I], which corresponds to Km^S/(Km^S + [S])Ki (where Km^S is the Km value of the reporter substrate and [S] its concentration in the reaction mixture) and allowed the calculation of the Ki value. Alternatively, a Dixon plot analysis was carried out by measuring the initial hydrolysis rates in the presence of variable concentrations of inhibitor and substrate. This allowed Ki values to be determined and supported the hypothesis that the various compounds behaved as competitive inhibitors of the various tested enzymes. The assays were performed in triplicate.

For assay [5], the target named is T1, NDM-1. Description: MBL inhibition, reporter substrate method, NDM-1. In kind it is biochemical. The procedure:
as §1, §2, §3

The target of assay [6] is T3, IMP-1. Kind of assay: MBL inhibition, reporter substrate method, IMP-1. The assay is classed as biochemical. The following applies: for Ki: value in parentheses, analogs of compounds 5 and 6 (this work), read-out: Ki Value IMP-1, corresponding hydrazone-like compound. As to the method:
as §1, §2, §3

Assay [7] concerns E. coli LZ2310(pLBII-VIM-2). Description: microbe, parasite or virus in culture. In kind it is cell-based, Escherichia coli. The conditions noted are these: 220 μg added to 30 μg cefoxitin disk (positive control). As to the method:
The potential activity of selected compounds was assessed by the agar disk-diffusion method, according to the CLSI (Clinical Laboratory Standard Institute) recommendations, using Mueller–Hinton medium. The inhibitor (dissolved in DMSO) was added (maximum volume of 15 μL) to a commercially available disk containing a defined amount of a β-lactam antibiotic (30 μg of cefoxitin (Oxoid, Milan, Italy)). After incubation (18 h at 35 °C), the diameter of the growth inhibition zone was measured and compared to that obtained in the absence of inhibitor. DMSO and EDTA (220 μg) were used as negative and positive controls, respectively. Experiments were performed in triplicate.
These tests were performed on an isogenic laboratory strain obtained after transforming Escherichia coli LZ2310 strain with a derivative of the high copy number plasmid pLB-II carrying the cloned blaVIM-2 gene harboring a cloned gene encoding the functional metallo-β-lactamase. Strain LZ2310 is a triple knockout mutant derived from K12 in which the genes encoding for components of the three major efflux pump systems were inactivated (genotype, ∆norE ∆mdfA N43 acrA1) and was used to generate an hyperpermeable background for MBL production and investigate the potential contribution of such mechanisms to inhibitor efflux.

The mark [8] stands for this setting: value in parentheses, analogs of compounds 5 and 6 (this work), read-out: Ki Value NDM-1, corresponding hydrazone-like compound.
Setting [9] is: read-out: Inhibition of VIM-2 (dash in Ki column).
Where [10] appears, read: read-out: Inhibition of NDM-1 (dash in Ki column).
[11] abbreviates: read-out: Inhibition of IMP-1 (dash in Ki column).
Setting [12] is: read-out: Percentage of Inhibition at 100 μM Inhibitor, VIM-2 (dash).
[13] abbreviates: read-out: Percentage of Inhibition at 100 μM Inhibitor, NDM-1 (dash).
The mark [14] stands for this setting: read-out: Percentage of Inhibition at 100 μM Inhibitor, IMP-1 (dash).

For `O=[N+]([O-])c1ccccc1C=Nn1c(CCc2ccccc2)n[nH]c1=S` [hydrazone-like analog of 9], the “Inhibition of NDM-1 (dash in Ki column), corresponding hydrazone-like compound” value (“Inhibition of NDM-1 (dash in Ki column)” for short) in assay [1] is “- (-) (<40% of inhibition in the presence of 100 μM inhibitor)”. The “Inhibition of VIM-2 (dash in Ki column), corresponding hydrazone-like compound” value in assay [2] was “- (-) (<40% of inhibition in the presence of 100 μM inhibitor)”. Also, in assay [3], the “Inhibition of IMP-1 (dash in Ki column), corresponding hydrazone-like compound” value (from here on “Inhibition of IMP-1 (dash in Ki column)”) is “- (-) (<40% of inhibition in the presence of 100 μM inhibitor)”.
For the molecule `O=C(O)c1ccccc1C=Nn1c(Cc2ccccc2)n[nH]c1=S` [hydrazone-like analog of 6], the Ki (commonly a measure of affinity in units of concentration, obtained from inhibition or displacement) was 3.2 µM in assay [4] (value in parentheses, analogs of compounds 5 and 6 (this work), read-out: Ki Value VIM-2, corresponding hydrazone-like compound (converted)); 42 µM in assay [5] (setting [8]); 28 µM in assay [6].
Turning to `O=C(O)c1ccccc1C=Nn1c(CCc2ccccc2)n[nH]c1=S` [hydrazone-like analog of 8], the “Inhibition of NDM-1 (dash in Ki column)” value in assay [1] is given as “- (-) (<40% of inhibition in the presence of 100 μM inhibitor)”. Besides, in assay [2], the Ki was 7 µM. Besides, in assay [3], the “Inhibition of IMP-1 (dash in Ki column)” value is “- (-) (<40% of inhibition in the presence of 100 μM inhibitor)”.
As for `O=[N+]([O-])c1ccccc1CNn1c(CCc2ccccc2)n[nH]c1=S` [Compound 9], the inhibition at 100 µM in assay [4] (setting [9]), in assay [5] (setting [10]) and in assay [6] (setting [11]) was less than 40% in each case.
Take `O=C(O)c1ccccc1C=Nn1c(Cc2ccc3ccccc3c2)n[nH]c1=S` [hydrazone-like analog of 7]: the Ki in assay [1] was 1.6 µM; in assay [2], 2.4 µM; in assay [3], 34 µM.
As to `O=C(O)c1ccccc1C(=O)Nn1c(-c2ccccc2)n[nH]c1=S` [Compound 17], in assay [4] (hydrazine and hydrazide series, read-out: Ki Value VIM-2), the Ki is greater than 100 µM. In addition, the inhibition at 100 µM in assay [4] (setting [12]), in assay [5] (setting [13]) and in assay [6] (setting [14]) was less than 20% each time.
Turning to `O=C(O)c1ccccc1CNn1c(COc2ccc3ccccc3c2)n[nH]c1=S` [Compound 12], the inhibition at 100 µM in assay [4] (setting [9]), in assay [5] (setting [10]) and in assay [6] (setting [11]) was less than 40% throughout.
With `O=C(O)c1ccccc1CNn1c(CC(c2ccccc2)c2ccccc2)n[nH]c1=S` [Compound 11], the inhibition at 100 µM in assay [4] (setting [9]) and in assay [6] (setting [11]) was less than 40% throughout. The “Inhibition of NDM-1 (in words)” value in assay [5] is recorded as “moderately inhibited”. In addition, the Ki in assay [5] (hydrazine series, read-out: Ki Value NDM-1) is 16.4 ± 2.6 µM.
Turning to `O=C(O)c1ccc(CNn2c(CCc3ccccc3)n[nH]c2=S)cc1` [Compound 10], the inhibition at 100 µM in assay [4] (setting [9]), in assay [5] (setting [10]) and in assay [6] (setting [11]) was less than 40% throughout.
Regarding `Cc1ccccc1-c1n[nH]c(=S)n1N=Cc1ccccc1C(=O)O` [hydrazone-like analog of 2], the “Inhibition of NDM-1 (dash in Ki column)” value in assay [1] is given as “- (-) (<40% of inhibition in the presence of 100 μM inhibitor)”. Further, the Ki was 3 µM in assay [2] and 58 µM in assay [3].
Consider `O=C(O)c1ccccc1C(=O)Nn1c(Cc2ccccc2)n[nH]c1=S` [Compound 18], for which the inhibition at 100 µM in assay [4] (setting [12]), in assay [5] (setting [13]) and in assay [6] (setting [14]) was less than 20% each time.
For `O=C(O)c1ccccc1CNn1c(-c2cc3ccccc3[nH]2)n[nH]c1=S` [Compound 5], the inhibition at 100 µM in assay [4] (setting [9]), in assay [5] (setting [10]) and in assay [6] (setting [11]) was less than 40% in each case.
For the molecule `O=C(O)CCC(=O)Nn1c(-c2cccc(-c3ccccc3)c2)n[nH]c1=S` [Compound 20], the inhibition at 100 µM in assay [4] (setting [12]), in assay [5] (setting [13]) and in assay [6] (setting [14]) was less than 20% each time.
`O=C(O)c1ccc(C=Nn2c(CCc3ccccc3)n[nH]c2=S)cc1` [hydrazone-like analog of 10]: in assay [1], the “Inhibition of NDM-1 (dash in Ki column)” value is listed as “- (-) (<40% of inhibition in the presence of 100 μM inhibitor)”. The “Inhibition of VIM-2 (dash in Ki column), corresponding hydrazone-like compound” value in assay [2] was “- (-) (<40% of inhibition in the presence of 100 μM inhibitor)”. Further, in assay [3], the inhibitory constant (Ki) was 11 µM.
On to `O=C(O)c1ccccc1CNn1c(CCc2ccccc2)n[nH]c1=S` [Compound 8], for which the inhibition at 100 µM in assay [4] (setting [9]), in assay [5] (setting [10]) and in assay [6] (setting [11]) was less than 40% in each case.
Take `O=C(O)c1ccccc1C=Nn1c(-c2cc3ccccc3[nH]2)n[nH]c1=S` [hydrazone-like analog of 5]: the inhibition (in general, how much of the control response was suppressed) at 100 µM in assay [4] (read-out: Inhibition of VIM-2 (dash in Ki column), corresponding hydrazone-like compound) is less than 40%. Moreover, the Ki in assay [5] (setting [8]) came out at 9.4 µM; in assay [6] it was 55 µM.
In the case of `O=C(O)CN(CCN(CC(=O)O)CC(=O)O)CC(=O)O` [EDTA, reference compound], the “Inhibition Zone Diameter” value in assay [7] came out at 28 mm.
Regarding `O=C(O)c1ccccc1C=Nn1c(CC(c2ccccc2)c2ccccc2)n[nH]c1=S` [hydrazone-like analog of 11], the values for the Ki in assay [1] and in assay [2] were 2.7 µM and 25 µM, respectively. In assay [3], the “Inhibition of IMP-1 (dash in Ki column)” value is given as “- (-) (<40% of inhibition in the presence of 100 μM inhibitor)”.
Take `O=C(O)c1ccccc1C=Nn1c(COc2ccc3ccccc3c2)n[nH]c1=S` [hydrazone-like analog of 12]: the Ki was 2.4 µM in assay [1] and 2 µM in assay [2]. The “Inhibition of IMP-1 (dash in Ki column)” value in assay [3] was “- (-) (<40% of inhibition in the presence of 100 μM inhibitor)”.
On to `O=C(O)c1ccccc1C=Nn1c(-c2cccc(-c3ccccc3)c2)n[nH]c1=S` [hydrazone-like analog of 3], for which the values for the Ki in assay [1], in assay [2] and in assay [3] were 4.2 µM, 0.2 µM and 18 µM, respectively.
Regarding `O=C(O)c1ccccc1C=Nn1c(-c2ccc3ccccc3c2)n[nH]c1=S` [hydrazone-like analog of 4], the Ki in assay [1] was 2.3 µM; in assay [2], 0.7 µM; in assay [3], 6.9 µM.
